Experimental data from US20210161968A1, “USE OF MICRONEEDLE PATCH TO PROMOTE HAIR GROWTH” (North Carolina State University, priority 2018, published 2021).

Test system: 7-week-old shaved C57BL/6J mouse model
Assay: Hair loss therapy (hair regrowth) in shaved mouse model
Format: in vivo
Procedure: Animal Studies: C57B/6J mice were used in this work and purchased from Jackson Laboratory (Bar Harbor, Me., United States of America). For in vivo therapy studies, the mice were shaved at postnatal day 50, and treated with an HMN patch loaded with exosomes and/or UK5099 at day 1 and day 5 after hair shave. The patch was pressed firmly for the first 5 seconds to penetrate through the epidermis and then pressed softly for an additional 1 minute to make the patch absorb liquid. The patch base was removed at 4 hours post-insertion into the skin. Topical administration of UK5099 (solvent formulation: ethanol/water/propylene glycol=5/3/2), and subcutaneous injection of exosomes were performed every two days, with the dosage same with that of the corresponding HMN patch. Shaved mice without any treatment were adopted as a control. The clinical agent minoxidil was used via topical administration in a concentration of 3%. The time profile of the hair phenotype transformation was obtained by real-time observation of the hair regrowth in mice. The judgement of the hair follicles in telogen, telogen-anagen transition, and anagen was performed according to a method previously described in the literature. See Oh et al., J. Investig. Dermatol. 2016, 136(1), 34-44. […]

SMILES: N#CC(=Cc1cn(-c2ccccc2)c2ccccc12)C(=O)O [UK5099, 2-cyano-3-(1-phenyl-1H-indol-3-yl)-2-propenoic acid]
- time for HFSCs to enter into anagen (pigmentation and hair regrowth) (delivered via HMN patch, two rounds of administration (day 1 and day 5)): about 8 days
- therapeutic effect reflected by the hair covered area (topical administration, seven treatments, compared with HMN administration): inferior therapeutic effect
